{
  "source": "patent EP0371837A2",
  "about": "“Process for the synthesis of esters of dithiocarbamic acids by substitution of hydroxylated positions of mono- or polyhydroxylated molecules, products of this process and their uses” (PASTEUR MERIEUX SERUMS ET VACCINS, priority 1988, dated 1990)",
  "key": {"[1]": {"assay": "Toxicity of lithium dithiocarbamates (method not described)", "conditions": "statement in words, no test described"}, "[2]": {"assay": "Activity of lithium dithiocarbamates (method not described)", "conditions": "statement in words, no test described; same applications as the esters (immunomodulator, antiviral)"}},
  "data": [
    {"smiles": "CCN(CC)C(=S)S", "note": "[diéthyldithiocarbamate de lithium, N,N diéthyl dithiocarbamate de lithium]", "values": [
      {"measurement": "toxicité", "setting": "[1]", "result": "peu toxiques"},
      {"measurement": "activité", "setting": "[2]", "result": "très actifs"}
    ]}
  ]
}
